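Test compounds were applied to cells in 96-well plates for 48 hours at 5 doses. TGI: concentration producing complete growth inhibition.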
What was measured:
Assay in all cases: NCI anticancer screen, dose series, 48 h
[1] = test system: HCT-15 colon
[2] = test system: A549 NSCLC
[3] = test system: HT29 colon
[4] = test system: NCI-H226 lung
[5] = test system: SR leukemia
[6] = test system: 786-0 renal
[7] = test system: PC-3 prostate
[8] = test system: NCI-H522 lung
[9] = test system: CAKI-1 renal
[10] = test system: SK-OV-3 ovarian
[11] = test system: HOP-62 NSCLC
[12] = test system: M14 melanoma
[13] = test system: NCI/ADR-RES ovarian
[14] = test system: U251 CNS
[15] = test system: SNB-75 CNS
[16] = test system: EKVX NSCLC
[17] = test system: HOP-92 NSCLC
[18] = test system: ACHN renal
[19] = test system: M19-MEL melanoma
[20] = test system: SN12C renal
[21] = test system: OVCAR-3 ovarian
[22] = test system: DMS 273 small cell lung
[23] = test system: DU-145 prostate
[24] = test system: IGROV1 ovarian
[25] = test system: SNB-78 CNS
[26] = test system: HL-60(TB) leukemia
[27] = test system: MALME-3M melanoma
[28] = test system: HCT-116 colon
[29] = test system: KM20L2 colon
[30] = test system: XF 498 CNS
[31] = test system: UACC-257 melanoma
[32] = test system: OVCAR-5 ovarian
[33] = test system: SK-MEL-5 melanoma
[34] = test system: COLO 205 colon
[35] = test system: T-47D breast
[36] = test system: UO-31 renal
[37] = test system: NCI-H460 lung
[38] = test system: SF-268 CNS
[39] = test system: HOP-18 NSCLC
[40] = test system: RPMI-8226 leukemia
[41] = test system: A498 renal
[42] = test system: SNB-19 CNS
[43] = test system: KM12 colon
[44] = test system: OVCAR-8 ovarian
[45] = test system: LOX IMVI melanoma
[46] = test system: BT-549 breast
[47] = test system: LXFL 529 NSCLC
[48] = test system: DLD-1 colon
[49] = test system: SK-MEL-2 melanoma
[50] = test system: UACC-62 melanoma
[51] = test system: RXF 393 renal
[52] = test system: SW-620 colon
[53] = test system: SF-539 CNS
[54] = test system: TK-10 renal
[55] = test system: MDA-N
[56] = test system: SK-MEL-28 melanoma
[57] = test system: MOLT-4 leukemia
[58] = test system: MDA-MB-231 breast
[59] = test system: MDA-MB-435
[60] = test system: HCC-2998 colon
[61] = test system: DMS 114 small cell lung
[62] = test system: SF-295 CNS
[63] = test system: CCRF-CEM leukemia
[64] = test system: OVCAR-4 ovarian
[65] = test system: K-562 leukemia
[66] = test system: NCI-H23 lung

## CCC1CN2CCc3cc(OC)c(OC)cc3C2CC1CC1c2cc(OC)c(OC)cc2CCN1C(=O)C(Cc1c[nH]c2ccccc12)NC(=O)OC(C)(C)C (stereo unspecified)
[1]
  TGI: 7.35 µM
[2]
  TGI: 7.93 µM
[3]
  TGI: 4.01 µM
[4]
  TGI: 27.6 µM
[5]
  TGI: 13.8 µM
[6]
  TGI: 6.74 µM
[7]
  TGI: 10.5 µM
[8]
  TGI: 5.57 µM
[9]
  TGI: 16.7 µM
[10]
  TGI: 9.48 µM
[11]
  TGI: 14.5 µM
[12]
  TGI: 3.29 µM
[13]
  TGI: 3.02 µM
[14]
  TGI: 6.29 µM
[15]
  TGI: 10.8 µM
[16]
  TGI: 10 µM
[17]
  TGI: 7.1 µM
[18]
  TGI: 10.4 µM
[19]
  TGI: 3.11 µM
[20]
  TGI: 8.7 µM
[21]
  TGI: 6.74 µM
[22]
  TGI: 19.1 µM
[23]
  TGI: 4.75 µM
[24]
  TGI: 4.25 µM
[25]
  TGI: 40.5 µM
[26]
  TGI: 3.8 µM
[27]
  TGI: 3.22 µM
[28]
  TGI: 5.78 µM
[29]
  TGI: 3.8 µM
[30]
  TGI: 3.19 µM
[31]
  TGI: 8.53 µM
[32]
  TGI: 16.7 µM
[33]
  TGI: 3.08 µM
[34]
  TGI: 2.95 µM
[35]
  TGI: 4.16 µM
[36]
  TGI: 7.77 µM
[37]
  TGI: 7.15 µM
[38]
  TGI: 15.9 µM
[39]
  TGI: 18.7 µM
[40]
  TGI: 6.15 µM
[41]
  TGI: 17.8 µM
[42]
  TGI: 17.6 µM
[43]
  TGI: 11 µM
[44]
  TGI: 8.58 µM
[45]
  TGI: 3.58 µM
[46]
  TGI: 7.83 µM
[47]
  TGI: 10.8 µM
[48]
  TGI: 27.4 µM
[49]
  TGI: 7.13 µM
[50]
  TGI: 14 µM
[51]
  TGI: 7.3 µM
[52]
  TGI: 9.03 µM
[53]
  TGI: 4.43 µM
[54]
  TGI: 16 µM
[55]
  TGI: 3.49 µM
[56]
  TGI: 4.31 µM
[57]
  TGI: 8.07 µM
[58]
  TGI: 3.66 µM
[59]
  TGI: 3.4 µM
[60]
  TGI: 5.24 µM
[61]
  TGI: 3.06 µM
[62]
  TGI: 9.31 µM
[63]
  TGI: 15.7 µM
[64]
  TGI: 3.63 µM
[65]
  TGI: > 33.9 µM
[66]
  TGI: 16.6 µM

— PubChem BioAssay (NCI)
